Reference: ChEMBL document CHEMBL3991601, “The target landscape of clinical kinase drugs” (Science, 2017)
Calls of active or inactive are those of the source. On the calls: in the data inactive means no Kd found up to 30 µM.

Key:
[1] = target: Serine/threonine-protein kinase N3 (Homo sapiens, UniProt Q6P5Z2)
[2] = target: MAP kinase-activated protein kinase 3 (Homo sapiens, UniProt Q16644)
[3] = target: T1, Electron transfer flavoprotein subunit beta (Homo sapiens, UniProt P38117)
T1 sequence (P38117 whole entry): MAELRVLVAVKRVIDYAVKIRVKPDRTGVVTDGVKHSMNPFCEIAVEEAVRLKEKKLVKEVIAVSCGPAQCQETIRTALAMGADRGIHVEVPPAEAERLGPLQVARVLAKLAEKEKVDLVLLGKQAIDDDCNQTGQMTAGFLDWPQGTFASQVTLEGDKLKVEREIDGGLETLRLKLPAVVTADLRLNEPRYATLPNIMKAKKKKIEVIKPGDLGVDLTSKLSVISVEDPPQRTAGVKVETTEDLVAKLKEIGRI

[4] = target: Choline-phosphate cytidylyltransferase A (Homo sapiens, UniProt P49585)
Chain of Choline-phosphate cytidylyltransferase A (P49585 whole entry): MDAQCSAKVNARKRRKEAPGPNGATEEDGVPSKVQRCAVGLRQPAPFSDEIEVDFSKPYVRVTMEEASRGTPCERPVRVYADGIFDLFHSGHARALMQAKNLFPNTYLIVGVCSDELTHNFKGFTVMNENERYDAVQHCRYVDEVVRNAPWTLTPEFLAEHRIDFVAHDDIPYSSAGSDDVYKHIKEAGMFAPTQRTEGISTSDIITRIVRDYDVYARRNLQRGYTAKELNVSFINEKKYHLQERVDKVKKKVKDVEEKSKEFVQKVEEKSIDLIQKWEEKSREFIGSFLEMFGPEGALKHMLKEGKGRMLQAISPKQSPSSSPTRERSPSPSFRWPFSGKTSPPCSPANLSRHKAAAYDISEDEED

[5] = target: T2, Protein kinase C zeta type (Homo sapiens, UniProt Q05513)
T2 sequence (Q05513 whole entry): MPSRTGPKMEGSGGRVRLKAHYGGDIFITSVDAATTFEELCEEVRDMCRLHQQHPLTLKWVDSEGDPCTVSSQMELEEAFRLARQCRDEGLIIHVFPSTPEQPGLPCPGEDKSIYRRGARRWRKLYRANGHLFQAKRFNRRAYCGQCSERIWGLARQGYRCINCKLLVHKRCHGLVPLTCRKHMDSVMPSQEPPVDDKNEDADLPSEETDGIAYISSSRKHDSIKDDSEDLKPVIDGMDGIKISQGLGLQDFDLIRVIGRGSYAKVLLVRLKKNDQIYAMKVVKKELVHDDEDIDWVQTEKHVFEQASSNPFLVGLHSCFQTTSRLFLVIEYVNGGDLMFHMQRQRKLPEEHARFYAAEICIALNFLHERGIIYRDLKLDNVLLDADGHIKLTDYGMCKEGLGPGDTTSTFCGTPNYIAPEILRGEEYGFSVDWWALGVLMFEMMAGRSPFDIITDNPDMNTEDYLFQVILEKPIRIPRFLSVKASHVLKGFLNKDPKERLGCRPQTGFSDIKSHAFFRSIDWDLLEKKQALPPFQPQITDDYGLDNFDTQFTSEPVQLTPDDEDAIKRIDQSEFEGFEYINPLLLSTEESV

[6] = target: Cell division cycle 7-related protein kinase (Homo sapiens, UniProt O00311)
Chain of Cell division cycle 7-related protein kinase (O00311 whole entry): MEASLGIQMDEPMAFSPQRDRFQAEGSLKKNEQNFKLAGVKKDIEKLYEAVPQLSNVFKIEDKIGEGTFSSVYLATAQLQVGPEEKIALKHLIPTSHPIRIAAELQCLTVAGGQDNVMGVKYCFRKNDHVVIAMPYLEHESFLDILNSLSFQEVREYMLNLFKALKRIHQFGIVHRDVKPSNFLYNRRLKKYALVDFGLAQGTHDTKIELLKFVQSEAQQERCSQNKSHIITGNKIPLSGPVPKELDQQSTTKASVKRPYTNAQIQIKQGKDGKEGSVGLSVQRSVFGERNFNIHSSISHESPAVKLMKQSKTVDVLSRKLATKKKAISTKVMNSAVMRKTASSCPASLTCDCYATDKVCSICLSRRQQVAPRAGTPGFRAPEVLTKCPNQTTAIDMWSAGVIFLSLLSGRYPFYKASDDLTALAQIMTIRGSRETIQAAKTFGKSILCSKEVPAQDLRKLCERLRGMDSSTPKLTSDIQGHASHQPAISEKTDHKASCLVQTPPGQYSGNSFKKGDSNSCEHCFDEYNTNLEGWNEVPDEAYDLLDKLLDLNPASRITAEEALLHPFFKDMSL

[7] = target: T3, Cyclin-dependent kinase-like 5 (Homo sapiens, UniProt O76039)
T3 sequence (O76039 whole entry): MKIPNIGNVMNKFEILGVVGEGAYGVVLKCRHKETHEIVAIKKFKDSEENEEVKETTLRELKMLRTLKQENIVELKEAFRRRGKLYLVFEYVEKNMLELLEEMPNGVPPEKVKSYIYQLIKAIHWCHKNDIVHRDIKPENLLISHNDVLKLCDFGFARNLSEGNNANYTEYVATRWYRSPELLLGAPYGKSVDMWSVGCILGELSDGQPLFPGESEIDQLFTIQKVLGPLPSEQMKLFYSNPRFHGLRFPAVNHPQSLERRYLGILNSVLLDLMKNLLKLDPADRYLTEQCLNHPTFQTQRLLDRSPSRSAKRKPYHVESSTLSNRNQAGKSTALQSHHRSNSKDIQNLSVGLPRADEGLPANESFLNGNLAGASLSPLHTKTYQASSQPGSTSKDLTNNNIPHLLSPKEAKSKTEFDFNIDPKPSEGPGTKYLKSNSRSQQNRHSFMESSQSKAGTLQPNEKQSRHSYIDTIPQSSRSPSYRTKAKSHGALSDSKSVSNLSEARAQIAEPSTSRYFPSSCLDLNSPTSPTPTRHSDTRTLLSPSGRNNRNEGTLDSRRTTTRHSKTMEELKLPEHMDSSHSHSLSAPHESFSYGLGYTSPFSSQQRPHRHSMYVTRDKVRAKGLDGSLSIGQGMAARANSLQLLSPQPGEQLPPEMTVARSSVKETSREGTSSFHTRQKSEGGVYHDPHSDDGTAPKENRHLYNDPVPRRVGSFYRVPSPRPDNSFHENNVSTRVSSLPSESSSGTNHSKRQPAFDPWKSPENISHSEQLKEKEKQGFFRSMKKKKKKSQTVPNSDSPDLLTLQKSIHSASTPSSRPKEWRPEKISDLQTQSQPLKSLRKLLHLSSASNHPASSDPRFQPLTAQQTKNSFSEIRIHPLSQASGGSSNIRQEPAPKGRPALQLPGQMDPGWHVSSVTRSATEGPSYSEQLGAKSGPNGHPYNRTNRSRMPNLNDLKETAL

[8] = target: Serine/threonine-protein kinase PLK1 (Homo sapiens, UniProt P53350)
Chain of Serine/threonine-protein kinase PLK1 (P53350 whole entry): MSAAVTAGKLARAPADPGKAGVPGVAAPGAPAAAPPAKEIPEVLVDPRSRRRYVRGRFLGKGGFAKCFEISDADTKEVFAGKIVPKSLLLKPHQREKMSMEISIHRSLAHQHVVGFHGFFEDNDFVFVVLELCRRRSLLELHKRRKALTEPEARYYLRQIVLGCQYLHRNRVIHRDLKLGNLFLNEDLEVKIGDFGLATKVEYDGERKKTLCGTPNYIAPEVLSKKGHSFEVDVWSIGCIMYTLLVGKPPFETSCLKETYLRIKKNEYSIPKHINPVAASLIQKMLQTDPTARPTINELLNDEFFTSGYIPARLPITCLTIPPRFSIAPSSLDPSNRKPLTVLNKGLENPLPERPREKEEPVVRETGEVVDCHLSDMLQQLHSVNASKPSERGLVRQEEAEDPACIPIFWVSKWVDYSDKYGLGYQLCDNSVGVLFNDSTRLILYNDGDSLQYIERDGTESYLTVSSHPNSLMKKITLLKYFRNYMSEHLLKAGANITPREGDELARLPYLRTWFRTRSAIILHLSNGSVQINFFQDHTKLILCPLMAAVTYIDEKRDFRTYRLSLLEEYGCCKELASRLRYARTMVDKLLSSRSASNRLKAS

UMP-CMP kinase = target: T4, UMP-CMP kinase (Homo sapiens, UniProt P30085)
T4 sequence (P30085 whole entry): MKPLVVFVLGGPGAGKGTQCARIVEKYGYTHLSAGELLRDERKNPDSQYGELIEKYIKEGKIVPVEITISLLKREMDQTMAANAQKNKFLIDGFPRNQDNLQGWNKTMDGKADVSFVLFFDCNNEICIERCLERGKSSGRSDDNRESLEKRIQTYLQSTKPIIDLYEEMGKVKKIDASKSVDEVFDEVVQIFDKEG

[9] = target: Serine/threonine-protein kinase Nek7 (Homo sapiens, UniProt Q8TDX7)
Chain of Serine/threonine-protein kinase Nek7 (Q8TDX7 whole entry): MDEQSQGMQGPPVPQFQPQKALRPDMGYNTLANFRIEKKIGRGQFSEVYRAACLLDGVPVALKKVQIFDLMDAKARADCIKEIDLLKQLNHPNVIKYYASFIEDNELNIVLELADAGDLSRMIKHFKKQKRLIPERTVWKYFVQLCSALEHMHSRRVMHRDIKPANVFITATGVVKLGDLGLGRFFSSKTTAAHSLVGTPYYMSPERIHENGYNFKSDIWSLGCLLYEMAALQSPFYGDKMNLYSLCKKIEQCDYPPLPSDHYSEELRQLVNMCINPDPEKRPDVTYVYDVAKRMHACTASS

Chain of MAP kinase-activated protein kinase 3 (Q16644 whole entry): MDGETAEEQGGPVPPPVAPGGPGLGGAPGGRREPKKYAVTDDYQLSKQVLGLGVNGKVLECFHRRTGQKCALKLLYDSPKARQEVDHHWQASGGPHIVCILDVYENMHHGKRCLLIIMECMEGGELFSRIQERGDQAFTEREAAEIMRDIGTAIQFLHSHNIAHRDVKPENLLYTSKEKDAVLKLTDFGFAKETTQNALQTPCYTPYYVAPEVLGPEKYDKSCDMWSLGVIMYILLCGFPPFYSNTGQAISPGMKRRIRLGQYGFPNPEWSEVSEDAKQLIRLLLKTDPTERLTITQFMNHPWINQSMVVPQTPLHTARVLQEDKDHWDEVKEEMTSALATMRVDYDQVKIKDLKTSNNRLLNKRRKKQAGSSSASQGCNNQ
Chain of Serine/threonine-protein kinase N3 (Q6P5Z2 whole entry): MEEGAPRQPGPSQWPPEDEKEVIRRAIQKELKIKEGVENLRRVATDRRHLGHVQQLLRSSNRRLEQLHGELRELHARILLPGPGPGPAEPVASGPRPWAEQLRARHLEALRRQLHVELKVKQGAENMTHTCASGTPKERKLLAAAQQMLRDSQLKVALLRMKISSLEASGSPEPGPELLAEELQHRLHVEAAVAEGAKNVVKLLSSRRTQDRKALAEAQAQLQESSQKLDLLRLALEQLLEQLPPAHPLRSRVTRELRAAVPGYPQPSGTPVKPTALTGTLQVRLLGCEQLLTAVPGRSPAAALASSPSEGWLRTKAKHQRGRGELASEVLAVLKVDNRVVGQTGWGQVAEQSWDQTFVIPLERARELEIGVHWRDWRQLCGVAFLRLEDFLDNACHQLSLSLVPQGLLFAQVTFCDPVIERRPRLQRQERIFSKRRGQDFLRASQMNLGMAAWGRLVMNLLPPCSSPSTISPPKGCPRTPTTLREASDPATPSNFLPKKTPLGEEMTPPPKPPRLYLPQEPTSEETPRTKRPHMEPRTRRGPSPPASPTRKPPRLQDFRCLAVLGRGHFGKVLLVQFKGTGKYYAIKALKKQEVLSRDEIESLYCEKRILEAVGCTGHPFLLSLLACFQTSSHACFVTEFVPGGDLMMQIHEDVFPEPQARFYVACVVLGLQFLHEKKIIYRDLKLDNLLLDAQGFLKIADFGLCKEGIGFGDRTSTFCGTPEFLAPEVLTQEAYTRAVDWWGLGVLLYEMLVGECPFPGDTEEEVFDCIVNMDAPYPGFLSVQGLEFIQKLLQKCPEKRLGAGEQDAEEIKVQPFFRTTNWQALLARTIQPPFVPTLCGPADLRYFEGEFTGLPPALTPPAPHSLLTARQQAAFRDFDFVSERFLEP

Kd [1]	Kd [2]	Kd [3]	Kd [4]	Kd [5]	Kd [6]	Kd [7]	Kd [8]	Kd [9]	SMILES	Kd (UMP-CMP kinase)
> 30 µM (inactive)	> 30 µM (inactive)	> 30 µM (inactive)	> 30 µM (inactive)	> 30 µM (inactive)	> 30 µM (inactive)	> 30 µM (inactive)	> 30 µM (inactive)		COCC(=O)NC/C=C/c1ccc2ncnc(Nc3ccc(Oc4ccc(C)nc4)c(C)c3)c2c1 [CP-724714]	
> 30 µM (inactive)	> 30 µM (inactive)	> 30 µM (inactive)	> 30 µM (inactive)	> 30 µM (inactive)	> 30 µM (inactive)	> 30 µM (inactive)	> 30 µM (inactive)		C#Cc1cccc(Nc2ncnc3cc(OC)c(OCCCCCCC(=O)NO)cc23)c1 [CUDC-101]	

Further lines, the compound ahead of its results:

SMILES	Kd [1]	Kd [2]	Kd [3]	Kd [4]	Kd [5]	Kd [6]	Kd [7]	Kd [8]	Kd [9]	Kd (UMP-CMP kinase)
CC(C)(C)c1nc(-c2cccc(NS(=O)(=O)c3c(F)cccc3F)c2F)c(-c2ccnc(N)n2)s1 [DABRAFENIB]	> 30 µM (inactive)	> 30 µM (inactive)	> 30 µM (inactive)	> 30 µM (inactive)	> 30 µM (inactive)	> 30 µM (inactive)	> 30 µM (inactive)	> 30 µM (inactive)		> 30 µM (inactive)
Cc1cnc(NC(=O)Nc2cc(Br)c(C)cc2OC[C@@H]2CNCCO2)cn1 [RABUSERTIB]	> 30 µM (inactive)	> 30 µM (inactive)	> 30 µM (inactive)	> 30 µM (inactive)	> 30 µM (inactive)	> 30 µM (inactive)	> 30 µM (inactive)	> 30 µM (inactive)	> 30 µM (inactive)	
CNC(=O)c1cc(Oc2ccc(NC(=O)Nc3cc(C(C)(C)C)nn3-c3ccc4ncccc4c3)c(F)c2)ccn1 [REBASTINIB]	> 30 µM (inactive)	> 30 µM (inactive)		> 30 µM (inactive)	> 30 µM (inactive)			> 30 µM (inactive)	> 30 µM (inactive)	
CO[C@H]1C[C@@H]2CC[C@@H](C)[C@@](O)(O2)C(=O)C(=O)N2CCCC[C@H]2C(=O)O[C@H]([C@H](C)C[C@@H]2CC[C@@H](OC(=O)C(C)(CO)CO)[C@H](OC)C2)CC(=O)[C@H](C)/C=C(\C)[C@@H](O)[C@@H](OC)C(=O)[C@H](C)C[C@H](C)/C=C/C=C/C=C/1C [TEMSIROLIMUS]	> 30 µM (inactive)	> 30 µM (inactive)	> 30 µM (inactive)	> 30 µM (inactive)	> 30 µM (inactive)	> 30 µM (inactive)	> 30 µM (inactive)	> 30 µM (inactive)	> 30 µM (inactive)	> 30 µM (inactive)
